{
  "source": "patent US20230303564A1",
  "about": "“PYRIMIDINE RING COMPOUND” (MEDSHINE DISCOVERY INC., priority 2020, published 2023)",
  "type_in_all_cases": "biochemical",
  "key": {"CDK6/CyclinD1": {"molecular_target": "CDK6/CyclinD1 (Homo sapiens (Human), UniProt Q00534)", "sequence (Q00534 whole entry)": "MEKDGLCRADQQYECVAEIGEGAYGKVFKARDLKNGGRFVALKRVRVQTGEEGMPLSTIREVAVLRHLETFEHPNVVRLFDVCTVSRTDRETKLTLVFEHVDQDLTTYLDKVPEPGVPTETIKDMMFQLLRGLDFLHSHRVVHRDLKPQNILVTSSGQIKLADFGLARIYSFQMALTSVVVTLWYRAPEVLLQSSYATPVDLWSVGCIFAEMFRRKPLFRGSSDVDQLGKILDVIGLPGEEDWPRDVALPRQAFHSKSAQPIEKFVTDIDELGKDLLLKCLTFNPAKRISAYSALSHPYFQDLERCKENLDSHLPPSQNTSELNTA", "sequence (P24385 whole entry partner)": "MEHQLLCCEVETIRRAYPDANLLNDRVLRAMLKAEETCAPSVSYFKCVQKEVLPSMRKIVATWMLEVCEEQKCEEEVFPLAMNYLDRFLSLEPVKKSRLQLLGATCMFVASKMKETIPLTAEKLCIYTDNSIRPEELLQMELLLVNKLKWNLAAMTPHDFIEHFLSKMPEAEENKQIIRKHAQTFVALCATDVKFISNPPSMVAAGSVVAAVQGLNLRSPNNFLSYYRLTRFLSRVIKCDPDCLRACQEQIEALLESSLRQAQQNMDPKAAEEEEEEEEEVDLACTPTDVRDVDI", "test": "CDK6/CyclinD1 enzyme activity test (LANCE Ultra TR-FRET)", "details": "250 μM ATP, 25° C. 120 minutes, read-out: CDK6/Cyclin D1 IC50", "procedure": "CDK6/CyclinD1 Enzyme Reaction System\n(§1) Preparation of Kinase Buffer:\n(§2) The composition of the buffer: 50 mM of hydroxyethylpiperazine ethanesulfonic acid solution at pH 7.5, 1 mM of ethylenediaminetetraacetic acid, 10 mM of magnesium chloride, 0.01% Brij-35, and 2 mM of dithiothreitol.\n(§3) Enzymes, substrate LANCE Ultra ULight™-4E-BP-1(Thr37146) Peptide, ATP, and inhibitors were diluted by kinase buffer.\n(§4) The compounds to be tested were diluted 5-fold with a multi-channel pipette to the eighth concentration, that is, from 40 μM to 0.512 nM, the concentration of DMSO was 4%, and a double-hole experiment was set up. […] The reaction system was reacted at 25° C. for 120 minutes. After the reaction, 5 μL mixture of EDTA and 2× LANCE™ Detection Buffer (1:1) were added to each well, the reaction was carried out at 25° C. for 5 minutes, after the reaction was completed, 5 μL of LANCE Ultra Eu-anti-P-4E-BP1(Thr37MS) (4 nM) was added to each well, the reaction was carried out at 25° C. for 60 minutes, the reaction signal was detected by Nivo instrument according to the principle of time-resolved fluorescence resonance energy transfer.\n(§5) The equation (Sample−Min)/(Max−Min)*100% was used to convert the raw data into inhibition rate, and the value of IC50 can be obtained by curve fitting with four parameters (obtained by log (inhibitor) vs. response-Variable slope mode in GraphPad Prism). The enzymatic inhibitory activity of the compounds of the present disclosure on CDK1/CyclinB1, CDK2/CyclinA2, CDK2/CyclinE1, CDK4/CyclinD1, CDK6/CyclinD1, CDK7/CyclinH/MAT1, CDK9/CyclinT1 was provided in Table 1."}, "CDK2/CyclinA2": {"molecular_target": "CDK2/CyclinA2 (Homo sapiens (Human), UniProt P24941)", "test": "CDK2/CyclinA2 enzyme activity test (ADP-Glo)", "details": "50 μM ATP, 25° C. 60 minutes, read-out: CDK2/Cyclin A2 IC50", "procedure": "CDK2/CyclinA2 Enzyme Reaction System\n(§6) Enzymes, substrates, ATP, and inhibitors were diluted by kinase buffer in the kit. The compounds to be tested were diluted 5-fold with a multi-channel pipette to the eighth concentration, that is, from 50 μM to 0.65 nM, the concentration of DMSO was 5%, and a double-hole experiment was set up. 1 μL of each concentration gradient of inhibitors, 2 μL of CDK2/CyclinA2 enzyme (1.6 ng), 2 μL mixture of substrate and ATP (50 μM ATP, 0.1 μg/μL substrate) were added to the microplates, and the final concentration gradient of the compound was 10 μM to 0.13 nM. The reaction system was reacted at 25° C. for 60 minutes. After the reaction, 5 μL of ADP-Glo reagent was added to each well, the reaction was carried out at 25° C. for 40 minutes, after the reaction was completed, 10 μL of kinase detection reagent was added to each well, the reaction was carried out at 25° C. for 30 minutes, the multiple label analyzer was used to read the chemiluminescence with an integration time of 0.5 seconds\nas §5"}, "CDK7/CyclinH/MAT1": {"molecular_target": "CDK7/CyclinH/MAT1 (Homo sapiens (Human), UniProt P50613)", "sequence (P50613 whole entry)": "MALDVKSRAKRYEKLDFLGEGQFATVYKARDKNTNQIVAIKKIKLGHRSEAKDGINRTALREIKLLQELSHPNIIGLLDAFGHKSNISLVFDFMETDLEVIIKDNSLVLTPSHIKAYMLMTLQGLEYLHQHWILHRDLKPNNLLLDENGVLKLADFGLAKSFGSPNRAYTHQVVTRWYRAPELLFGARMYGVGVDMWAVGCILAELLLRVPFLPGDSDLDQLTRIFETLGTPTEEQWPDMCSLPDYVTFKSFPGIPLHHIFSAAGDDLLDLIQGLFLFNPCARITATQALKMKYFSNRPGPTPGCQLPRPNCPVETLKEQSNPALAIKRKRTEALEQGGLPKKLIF", "sequence (P51946 whole entry partner)": "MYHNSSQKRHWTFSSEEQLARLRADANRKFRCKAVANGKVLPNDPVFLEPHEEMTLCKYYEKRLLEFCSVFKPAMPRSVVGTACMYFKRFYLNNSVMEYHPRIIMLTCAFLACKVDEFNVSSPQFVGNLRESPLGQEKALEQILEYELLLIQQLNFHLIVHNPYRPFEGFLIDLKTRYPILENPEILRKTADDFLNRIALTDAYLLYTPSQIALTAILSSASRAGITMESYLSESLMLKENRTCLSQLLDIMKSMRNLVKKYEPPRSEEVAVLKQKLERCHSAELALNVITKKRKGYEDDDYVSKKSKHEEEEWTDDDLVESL", "sequence (P51948 whole entry partner)": "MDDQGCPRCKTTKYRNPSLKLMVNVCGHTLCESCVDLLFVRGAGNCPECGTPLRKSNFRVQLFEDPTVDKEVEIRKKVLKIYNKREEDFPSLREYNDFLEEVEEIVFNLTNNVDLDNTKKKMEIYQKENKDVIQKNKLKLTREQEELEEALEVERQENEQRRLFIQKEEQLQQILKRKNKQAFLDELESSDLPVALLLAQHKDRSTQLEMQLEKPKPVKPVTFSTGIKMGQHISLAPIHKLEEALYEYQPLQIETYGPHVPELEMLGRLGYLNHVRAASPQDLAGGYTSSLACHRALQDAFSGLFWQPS", "test": "CDK7/CyclinH/MAT1 enzyme activity test (ADP-Glo)", "details": "10 μM ATP, 25° C. 120 minutes, read-out: CDK7/Cyclin H IC50", "quoted_text": "CDK7/CyclinH/MAT1 Enzyme Reaction System\nEnzymes, substrates (MBP), ATP, and inhibitors were diluted by kinase buffer in the kit. The compounds to be tested were diluted 5-fold with a multi-channel pipette to the eighth concentration, that is, from 50 μM to 0.65 nM, the concentration of DMSO was 5%, and a double-hole experiment was set up. 1 μL of each concentration gradient of inhibitors, 2 μL of CDK7/CyclinH/MAT1 enzyme (20 ng), 2 μL mixture of substrate and ATP (10 μM ATP, 0.1 μg/μL substrate) were added to the microplates, and the final concentration gradient of the compound was 10 μM to 0.13 nM. The reaction system was reacted at 25° C. for 120 minutes. After the reaction, 5 μL of ADP-Glo reagent was added to each well, the reaction was carried out at 25° C. for 40 minutes, after the reaction was completed, 10 μL of kinase detection reagent was added to each well, the reaction was carried out at 25° C. for 30 minutes, the multiple label analyzer was used to read the chemiluminescence with an integration time of 0.5 seconds."}, "CDK4/CyclinD1": {"molecular_target": "CDK4/CyclinD1 (Homo sapiens (Human), UniProt P11802)", "sequence (P11802 whole entry)": "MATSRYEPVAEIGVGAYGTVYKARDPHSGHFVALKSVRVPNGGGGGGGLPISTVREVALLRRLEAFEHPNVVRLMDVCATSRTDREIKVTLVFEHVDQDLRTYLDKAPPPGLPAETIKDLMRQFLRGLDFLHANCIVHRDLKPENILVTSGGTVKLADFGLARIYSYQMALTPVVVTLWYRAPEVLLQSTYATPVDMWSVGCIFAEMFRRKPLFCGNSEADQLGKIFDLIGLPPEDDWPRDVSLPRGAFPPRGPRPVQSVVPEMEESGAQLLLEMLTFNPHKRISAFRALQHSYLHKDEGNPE", "sequence (P24385 whole entry partner)": "as the sequence (P24385 whole entry partner) above", "test": "CDK4/CyclinD1 enzyme activity test (LANCE Ultra TR-FRET)", "details": "350 μM ATP, 25° C. 120 minutes, read-out: CDK4/Cyclin D1 IC50", "procedure": "CDK4/CyclinD1 Enzyme Reaction System\nas §1, §2, §3, §4, §5"}, "CDK9/CyclinT1": {"molecular_target": "CDK9/CyclinT1 (Homo sapiens (Human), UniProt P50750)", "sequence (P50750 whole entry)": "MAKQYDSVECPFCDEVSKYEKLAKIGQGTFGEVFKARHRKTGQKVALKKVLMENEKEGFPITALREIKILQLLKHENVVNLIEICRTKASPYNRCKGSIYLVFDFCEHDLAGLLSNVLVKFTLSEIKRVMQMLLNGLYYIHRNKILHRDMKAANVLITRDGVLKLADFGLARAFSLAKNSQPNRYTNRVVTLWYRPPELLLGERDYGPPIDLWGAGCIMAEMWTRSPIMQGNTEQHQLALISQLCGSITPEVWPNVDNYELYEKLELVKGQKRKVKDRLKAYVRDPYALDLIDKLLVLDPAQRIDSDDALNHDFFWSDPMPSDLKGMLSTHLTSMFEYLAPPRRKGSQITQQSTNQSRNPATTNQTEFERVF", "sequence (O60563 whole entry partner)": "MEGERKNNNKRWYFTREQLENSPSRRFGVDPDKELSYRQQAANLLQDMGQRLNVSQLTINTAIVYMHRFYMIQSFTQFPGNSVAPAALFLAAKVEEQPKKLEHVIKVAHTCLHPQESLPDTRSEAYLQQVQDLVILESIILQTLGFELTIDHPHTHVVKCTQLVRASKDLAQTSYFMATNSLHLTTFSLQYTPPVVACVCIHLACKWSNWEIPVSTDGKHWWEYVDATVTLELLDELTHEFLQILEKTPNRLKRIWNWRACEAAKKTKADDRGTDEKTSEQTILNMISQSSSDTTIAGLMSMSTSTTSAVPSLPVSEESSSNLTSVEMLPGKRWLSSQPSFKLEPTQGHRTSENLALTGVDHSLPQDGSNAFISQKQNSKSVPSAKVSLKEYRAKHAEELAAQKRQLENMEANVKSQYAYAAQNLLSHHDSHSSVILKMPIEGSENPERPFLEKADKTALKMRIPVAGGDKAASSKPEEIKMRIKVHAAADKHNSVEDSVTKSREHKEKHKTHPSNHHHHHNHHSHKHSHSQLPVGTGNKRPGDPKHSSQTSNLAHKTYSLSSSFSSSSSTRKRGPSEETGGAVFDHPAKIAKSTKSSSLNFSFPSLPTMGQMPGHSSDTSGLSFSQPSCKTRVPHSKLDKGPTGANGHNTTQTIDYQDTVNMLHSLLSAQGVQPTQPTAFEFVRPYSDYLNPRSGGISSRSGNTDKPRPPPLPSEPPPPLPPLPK", "test": "CDK9/CyclinT1 enzyme activity test (ADP-Glo)", "details": "100 μM ATP, 25° C. 120 minutes, read-out: CDK 9/Cyclin T1 IC50", "procedure": "CDK9/CyclinT1 Enzyme Reaction System\nas §6, with “of CDK9/CyclinT1” for “of CDK2/CyclinA2”, “enzyme (4” for “enzyme (1.6”, “ATP (100” for “ATP (50”, “ATP, 0.2” for “ATP, 0.1”, “for 120” for “for 60”, “0.5 seconds.” for “0.5 seconds”\nas §5"}, "CDK2/CyclinE1": {"molecular_target": "CDK2/CyclinE1 (Homo sapiens (Human), UniProt P24941)", "test": "CDK2/CyclinE1 enzyme activity test (ADP-Glo)", "details": "150 μM ATP, 25° C. 60 minutes, read-out: CDK2/Cyclin E1 IC50", "procedure": "CDK2/CyclinE1 Enzyme Reaction System\nas §6, with “CDK2/CyclinE1” for “CDK2/CyclinA2”, “(2” for “(1.6”, “(150” for “(50”, “seconds.” for “seconds”\nas §5"}, "CDK1/CyclinB1": {"molecular_target": "CDK1/CyclinB1 (Homo sapiens (Human), UniProt P06493)", "sequence (P06493 whole entry)": "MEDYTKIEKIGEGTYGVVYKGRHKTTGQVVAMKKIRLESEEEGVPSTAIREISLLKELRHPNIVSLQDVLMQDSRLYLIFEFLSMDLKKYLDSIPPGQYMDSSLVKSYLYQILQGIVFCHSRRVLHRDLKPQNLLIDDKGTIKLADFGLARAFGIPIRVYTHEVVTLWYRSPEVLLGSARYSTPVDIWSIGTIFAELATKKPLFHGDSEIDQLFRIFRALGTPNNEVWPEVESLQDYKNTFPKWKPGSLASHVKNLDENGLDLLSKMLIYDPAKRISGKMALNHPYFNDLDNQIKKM", "sequence (P14635 whole entry partner)": "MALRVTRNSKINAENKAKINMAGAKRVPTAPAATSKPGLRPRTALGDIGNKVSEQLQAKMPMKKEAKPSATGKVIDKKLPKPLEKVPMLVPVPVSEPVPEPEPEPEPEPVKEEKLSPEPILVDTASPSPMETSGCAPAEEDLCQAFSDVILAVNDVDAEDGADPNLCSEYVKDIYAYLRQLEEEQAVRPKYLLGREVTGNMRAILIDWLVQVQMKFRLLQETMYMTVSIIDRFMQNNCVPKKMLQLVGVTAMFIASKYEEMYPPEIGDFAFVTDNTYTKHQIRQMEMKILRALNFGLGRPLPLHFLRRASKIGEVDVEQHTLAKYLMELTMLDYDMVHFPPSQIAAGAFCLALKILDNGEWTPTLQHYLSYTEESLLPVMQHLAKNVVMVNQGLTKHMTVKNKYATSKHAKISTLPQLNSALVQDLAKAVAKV", "test": "CDK1/CyclinB1 enzyme activity test (ADP-Glo)", "details": "25 μM ATP, 25° C. 120 minutes, read-out: CDK1/Cyclin B IC50", "procedure": "CDK1/CyclinB1 Enzyme Reaction System\nas §6, with “CDK1/CyclinB1” for “CDK2/CyclinA2”, “(12.5” for “(1.6”, “(25” for “(50”, “adenosine triphosphate, 0.2” for “ATP, 0.1”, “120” for “60”, “seconds.” for “seconds”\nas §5"}},
  "data": [
    {"molecule": "Cc1cc2cnc(NC3CCN(S(C)(=O)=O)CC3)nc2c(N[C@@H]2CCC[C@@]2(C)O)n1", "note": "[Compound 8]", "values": [
      {"measurement": "IC50", "setting": "CDK6/CyclinD1", "result": 0.81, "unit": "nM"},
      {"measurement": "IC50", "setting": "CDK2/CyclinA2", "result": 0.73, "unit": "nM"},
      {"measurement": "IC50", "setting": "CDK7/CyclinH/MAT1", "result": 41, "unit": "nM"},
      {"measurement": "IC50", "setting": "CDK4/CyclinD1", "result": 1.23, "unit": "nM"},
      {"measurement": "IC50", "setting": "CDK9/CyclinT1", "result": 89, "unit": "nM"},
      {"measurement": "IC50", "setting": "CDK2/CyclinE1", "result": 3.92, "unit": "nM"},
      {"measurement": "IC50", "setting": "CDK1/CyclinB1", "result": 6.77, "unit": "nM"}
    ]}
  ]
}
